Reference: patent EP0224249A1, “Amorphous benzimidazole derivatives” (SYNTEX (U.S.A.) INC., priority 1985, dated 1987)
One block for each molecule: values may come before it.

Legend:
[1] = administered to humans; cited from earlier work
[2] = Dissolution rate at pH 2; type: physicochemical
Excerpt: The dissolution rate of amorphous fenbendazole versus crystalline fenbendazole at pH 2 was studied as a model for showing the bioavailability of the amorphous compound.

[3] = system: Trichostrongylus spp.; assay: Anthelmintic efficacy in naturally infected goats, necropsy on day 6 post-treatment; type: in vivo; conditions: necropsy day 6 post-treatment
Procedure: (§1) (A) Fifteen (15) goats, preferably from a single source, known to be infected with nematode parasites as evidenced by positive fecal egg counts are used. The animals would be preferably of one sex. They will have been to be contaminated with goat parasite eggs and larvae, particularly Ostertagia spp. (hereinafter "Ost") and Trichostrongylus spp. (hereinafter "Tri") • 1. - Control • 2. - 9 mg amorphous oxfendazole/kg • 3. - 15 mg oxfendazole/kg Animals are then subjected to necropsy on day 6 post-treatment. Gastrointestinal tract, lungs, and liver are examined using standard parasitological techniques for nematode and trematode parasites.

[4] = system: Ostertagia spp.; assay: as above; type: in vivo; conditions: necropsy day 6 post-treatment
Procedure: as §1

[5] = Blood plasma levels after oral administration to dogs; type: in vivo; conditions: 10 mg/kg; for Area Under the Curve / Area Under the Curve, mean (n = 6): plasma concentration vs time, 18720 min
Procedure: Dogs were administered orally either amorphous or crystalline oxfendazole at a dose of 10 mg/kg.
Blood samples were drawn and analyzed before administration and on days 1, 2, 3, 7, 10, and 13 following administration. The area under the curve was calculated for plasma concentration vs time profile.

[6] = system: Trichuris ovis; assay: Anthelmintic efficacy in sheep carrying oxfendazole-resistant nematodes; type: in vivo
Procedure: (§2) Animals are then subjected to necropsy on day 6 post-treatment. Gastrointestinal tract, lungs, and liver are examined using standard parasitological techniques for nematode and trematode parasites.
(§3) (B) Sheep carrying nematodes with varying degrees of resistance to oxfendazole were treated with either levamisole, oxfendazole, or amorphous oxfendazole in accordance with the above procedure.
(§4) • Ost = Ostertagia spp. • Tri = Trichostrongylus spp. • Nem = Nematodirus spp. • Oes = Oesophagostomum spp. • Tr.o = Trichuris ovis

[7] = system: Trichostrongylus spp.; assay: as above; type: in vivo
Procedure: as §2, §3, §4

[8] = system: Oesophagostomum spp.; assay: as above; type: in vivo
Procedure: as §2, §3, §4

[9] = system: Nematodirus spp.; assay: as above; type: in vivo
Procedure: as §2, §3, §4

[10] = system: Ostertagia spp.; assay: as above; type: in vivo
Procedure: as §2, §3, §4

[11] = system: nematode parasites; assay: Overall comparison of the goat and sheep efficacy studies; type: in vivo; conditions: goat and sheep studies together
Excerpt: (A) Fifteen (15) goats, preferably from a single source, known to be infected with nematode parasites as evidenced by positive fecal egg counts are used. The animals would be preferably of one sex. They will have been to be contaminated with goat parasite eggs and larvae, particularly Ostertagia spp. (hereinafter "Ost") and Trichostrongylus spp. (hereinafter "Tri")
as §2, §3

Compound: COC(=O)Nc1nc2ccc(C(=O)c3ccccc3)cc2[nH]1 [crystalline mebendazole, methyl 5-benzoyl-lH-benzimidazol-2-yl carbamate]
absorbed [1]: 3-4%

Compound: COC(=O)Nc1nc2ccc(Sc3ccccc3)cc2[nH]1 [amorphous fenbendazole, methyl 5-(phenylthio)-lH-benzimidazol-2-yl carbamate]
% Dissolved ([2]; pH 2, 5 min): 73%
% Dissolved ([2]; pH 2, 15 min): 91%
% Dissolved ([2]; pH 2, 30 min): 125%
% Dissolved ([2]; pH 2, 60 min): 130%
% Dissolved ([2]; pH 2, 90 min): 112%
solubility compared with crystalline fenbendazole ([2]; pH 2, over time): more soluble than crystalline fenbendazole and remains more soluble over time

Area Under the Curve ([5]; Dog No. A): 20465.0 ng/ml hr
Area Under the Curve ([5]; Dog No. B): 9717.5 ng/ml hr
Area Under the Curve ([5]; Dog No. C): 11592.5 ng/ml hr
Area Under the Curve ([5]; Dog No. D): 24245.0 ng/ml hr
Area Under the Curve ([5]; Dog No. E): 12653.8 ng/ml hr
Area Under the Curve ([5]; Dog No. F): 25475.0 ng/ml hr
plasma level of oxfendazole compared with oxfendazole in commercially available form ([5]; dogs): higher plasma level of oxfendazole
Area Under the Curve, mean (n = 6) ([5]; dogs): 17358.1 ng/ml hr
Compound: COC(=O)Nc1nc2ccc([S+]([O-])c3ccccc3)cc2[nH]1 (stereo not drawn) [amorphous oxfendazole, methyl 5-(phenylsulfinyl)-lH-benzimidazol-2-yl carbamate]
Percent Efficacy Tri ([3]; 9 mg/kg): 98%
Percent Efficacy Ost ([4]; 9 mg/kg): 70%
Percent Efficacy Tr. o ([6]; 3 mg/kg): 9.5%
Percent Efficacy Tr. o ([6]; 6 mg/kg): 69%
Percent Efficacy Tri ([7]; 3 mg/kg): 100%
Percent Efficacy Tri ([7]; 6 mg/kg): 100%
Percent Efficacy Oes ([8]; 3 mg/kg): 100%
Percent Efficacy Oes ([8]; 6 mg/kg): 100%
Percent Efficacy Nem ([9]; 3 mg/kg): 57%
Percent Efficacy Nem ([9]; 6 mg/kg): 82%
Percent Efficacy Ost ([10]; 3 mg/kg): 55%
Percent Efficacy Ost ([10]; 6 mg/kg): 22%
dose for approximately equivalent efficacy, relative to that required for oxfendazole [11]: about 60%

Compound: COC(=O)Nc1nc2cc(Sc3ccccc3)ccc2[nH]1 [crystalline fenbendazole, methyl 5-(phenylthio)-lH-benzimidazol-2-yl carbamate]
% Dissolved ([2]; pH 2, 5 min): 21%
% Dissolved ([2]; pH 2, 15 min): 22%
% Dissolved ([2]; pH 2, 30 min): 46%
% Dissolved ([2]; pH 2, 60 min): 41%
% Dissolved ([2]; pH 2, 90 min): 25%

Compound: c1ccc([C@H]2CN3CCSC3=N2)cc1 [Levamisole]
Percent Efficacy Tr. o ([6]; 8 mg/kg): 37%
Percent Efficacy Tri ([7]; 8 mg/kg): 49%
Percent Efficacy Oes ([8]; 8 mg/kg): 100%
Percent Efficacy Nem ([9]; 8 mg/kg): 100%
Percent Efficacy Ost ([10]; 8 mg/kg): 98%

Area Under the Curve ([5]; Dog No. A, listed as Crystalline Ox.): 2700.0 ng/ml hr
Area Under the Curve ([5]; Dog No. B, listed as Crystalline Ox.): 2622.0 ng/ml hr
Area Under the Curve ([5]; Dog No. C, listed as Crystalline Ox.): 2130.0 ng/ml hr
Area Under the Curve ([5]; Dog No. D, listed as Crystalline Ox.): 3341.0 ng/ml hr
Area Under the Curve ([5]; Dog No. E, listed as Crystalline Ox.): 3107.5 ng/ml hr
Area Under the Curve ([5]; Dog No. F, listed as Crystalline Ox.): 4149.5 ng/ml hr
Area Under the Curve, mean (n = 6) ([5]; dogs, listed as Crystalline Ox.): 3008.4 ng/ml hr
Compound: COC(=O)Nc1nc2ccc([S+]([O-])c3ccccc3)cc2[nH]1 (stereo not drawn) [oxfendazole, methyl 5-(phenylsulfinyl)-lH-benzimidazol-2-yl carbamate]
Percent Efficacy Tri ([3]; 15 mg/kg): 80%
Percent Efficacy Ost ([4]; 15 mg/kg): 77%
Percent Efficacy Tr. o ([6]; 5 mg/kg): 38%
Percent Efficacy Tr. o ([6]; 10 mg/kg): 62%
Percent Efficacy Tri ([7]; 5 mg/kg): 100%
Percent Efficacy Tri ([7]; 10 mg/kg): 99.7%
Percent Efficacy Oes ([8]; 5 mg/kg): 100%
Percent Efficacy Oes ([8]; 10 mg/kg): 100%
Percent Efficacy Nem ([9]; 5 mg/kg): 22%
Percent Efficacy Nem ([9]; 10 mg/kg): 80%
Percent Efficacy Ost ([10]; 5 mg/kg): 0%
Percent Efficacy Ost ([10]; 10 mg/kg): 28%
